Measurements taken from US20100204460A1, “NATURAL BRASSINOSTEROIDS FOR USE FOR TREATING HYPERPROLIFERATION, TREATING PROLIFERATIVE DISEASES AND REDUCING ADVERSE EFFECTS OF STEROID DYSFUNCTION IN MAMMALS, PHARMACEUTICAL COMPOSITION AND ITS USE” (priority 2007, published 2010).

What was measured:
DU-145 cells = test: BrdU incorporation assay, DU-145; type: cell-based
Procedure: To analyze if the inhibition in cell viability was due to decreased cell proliferation, we measured DNA synthesis in the presence of BRs. The effect of brassinosteroids 9 or 6 on cell proliferation and DNA replication of the cancer cells was measured by BrdU incorporation assay. This immunostaining was based on nuclear incorporation of bromodeoxyuridine (BrdU) into DNA in place of thymidine during the S-phase of cell cycle detected by anti-specific-BrdU antibody following membrane permeabilization as described previously (Gratzner, Science. 1982, 218, 474-475). […] The BrdU reagent (0.1 mM; Sigma, MO, USA) was added in culture medium with cells for 4 h in a CO2 incubator at 37° C. After incubation the cells were washed three times with PBS and fixed with cold acetone-methanol (1:1, v/v) for 10 min. The cells were denaturated by HCl (1:5; Lachema, Czech Republic) and incubated with anti-specific-BrdU antibody (diluted 1:100 in PBS; clone Bu20a, DakoCytomation, Denmark) for 60 min in the dark. The cells were then washed three times in PBS (10 mM, pH 7.4) and incubated with goat anti-mouse fluorescein isothiocyanate (FITC)-labeled secondary antibody (Sigma, MO, USA) for 60 min in the dark. The cells were then washed three times in PBS and incubated with DAPI (50 μg/mL; Sigma, MO, USA) for 10 min in the dark. The coverslips with cells were washed in deionized water and mounted on glass slides, using the hydrophilic medium Mowiol (Calbiochem, Calif., USA) in glycerol-PBS (1:3, v/v) for fluorescence. Cells were visualized using microscopy and those incorporating BrdU (S phase cells) were counted in at least 25 fields and compared with the total number of all cells.

[1] = system: normal human fibroblasts (BJ); test: Calcein AM cytotoxicity assay, BJ; type: cell-based; settings: BJ normal fibroblasts; exposure 72 h (b71 says 96 h); mean ± SD; read-out: IC50 assessed by Calcein AM assay of surviving cells
MDA-MB-468 cells = test: Western blot of cell cycle and apoptosis related proteins, MDA-MB-468; type: cell-based; settings: for expression of apoptosis related proteins (Bcl-2 family, caspase-3 activation) (Western blot) / p21Waf1/Cip1 expression (Western blot) / p27Kip1 expression (Western blot): IC50 for 6, 12, 24 h vs untreated control; for retinoblastoma protein (Rb) expression, phosphorylated and dephosphorylated forms (Western blot): vs untreated control
Procedure: The cells were seeded in a density 1.6×10^4 cells/cm^2 (LNCaP), 1.4×10^4 cells/cm^2 (DU-145, MDA-MB-468 and MCF-7) using culture medium in 100-mm culture Petri dishes. After reaching of 70-80% confluence, the cells were treated with tested compounds 9 in concentration IC50 that were evaluated by MTT analysis described above. DMSO was used as a vehicle for controls. After 6, 12 and 24 h treatment, the cells were washed with cold PBS and scraped in ice-cold protein extract ion buffer (50 mM HEPES, pH 7.5; 150 mM NaCl; 1 mM EDTA; 2.5 mM EGTA; 10% glycerol; 0.1% Tween 20) with protease and phosphatase inhibitors (25 μL/mL phenylmethanesulphonyl fluoride; 2.5 μL/mL leupeptin; 0.1 mM Na3VO4; 2.5 μL/mL aprotinin; 10 mM β-glycerol-phosphate; 1 mM dithiothreitol). The lysates were collected into microfuge tube and incubated on ice for 1 h. Cells were incubated 60 min at 4° C. under time by time shaking in protein extraction buffer. After centrifugation at 45 000×g for 30 min at 4° C., supernatant was collected, aliquoted, and stored at −80° C. The protein content in the lysates was measured by a Bredford assay (Bio-Rad Laboratories, Hercules, Calif., USA) according to the manufacture's protocol.
For Western blot analysis, equal aliquots of proteins (15-30 μg/well) were loaded on 10% or 12% SDS-PAGE gels and transferred onto nitrocellulose membranes (Amersham Biosciences, Vienna, Austria) by semi-dry electrophoretic transfer. Coloured marker (Rainbow™, Amersham Biosciences, Vienna, Austria) was used as a protein molecular weight standard. The non-specific binding sites were blocked by incubating the blot with 5% (w/v) non-fat dry milk in PBS for 2 h. The blot was incubated overnight in 4° C. with appropriate primary antibody that detects the protein epitope of interest and finally washed in PBS with 0.1% Tween 20 for 1 h. The blot was incubated with the diluted secondary goat anti-mouse IgG-horseradish peroxidase conjugated antibody (dilution 1:6000, Santa Cruz Biotechnology, Santa Cruz, Calif., USA) or goat anti-rabbit IgG-horseradish peroxidase conjugated antibody (dilution 1:2000, DakoCytomation, Glostrup, Denmark) for 45 min in 4° C. The membrane was washed in PBS with 0.1% Tween 20 for 1 h. The proteins were detected using a chemiluminescence detection system (Amersham Biosciences, Vienna, Austria) according to the protocol provided by the manufacturer. Equality of loaded proteins was confirmed by Ponceau S membrane staining (Sigma, St. Louis, Mo., USA) and by detection of anti-tubulin-α or anti-mcm-7 antibodies. The experiments were repeated three times. The protein expressions in treated cells were compared to untreated controls.
Western blot analysis was used to detect changes in apoptosis related protein expression in breast and prostate cancer cell lines. […] This decreased expression of Bid can indicate a cleavage of the protein after treatment by BRs. In DU-145 cell line, expression of pro-apoptotic proteins Bax and Bid was unchanged. […] On the other hand, caspase cleavage was not found in DU-145 cells. Poly-(ADP-ribose) polymerase (PARP) positive expression in controls of prostate cancer cell lines was observed but brassinosteroids had no effect on its expression nor on its degradation within the period 6/12/24 h (FIG. 6B).

[2] = system: herpes simplex virus type 1 (HSV-1); settings: cited from earlier work
[3] = treated at IC50 for 6 h, control 51 ± 3.8
[4] = treated at IC50 for 12 h, control 54 ± 4.2
[5] = treated at IC50 for 24 h, control 56 ± 6.5

Compound | percentage of proliferating BrdU positive cells (DU-145 cells; [3]) [%] | percentage of proliferating BrdU positive cells (DU-145 cells; [4]) [%] | percentage of proliferating BrdU positive cells (DU-145 cells; [5]) [%] | IC50 [1] [µM] | cyclin D1 expression (Western blot) (MDA-MB-468 cells; 6/12/24 h vs untreated control) | expression of apoptosis related proteins (Bcl-2 family, caspase-3 activation) (Western blot) (MDA-MB-468 cells) | p21Waf1/Cip1 expression (Western blot) (MDA-MB-468 cells) | p27Kip1 expression (Western blot) (MDA-MB-468 cells) | retinoblastoma protein (Rb) expression, phosphorylated and dephosphorylated forms (Western blot) (MDA-MB-468 cells) | in vitro antiviral activity [2]
CC(C)[C@@H](C)[C@@H](O)[C@H](O)[C@@H](C)[C@H]1CC[C@H]2[C@@H]3COC(=O)[C@H]4C[C@H](O)[C@H](O)C[C@]4(C)[C@H]3CC[C@]12C [Brassinosteroid 6, 24-Epibrassinolide] | 32 ± 3.8 | 27 ± 5.3 | 16 ± 1.5 | > 50 | decreased expression of cyclin D1 | no significant changes in expression of Bcl-2 family protein nor caspase-3 activation | significantly increased after 12 and 24 h | decreased in all time points | decreased | –
CC[C@@H](C(C)C)[C@@H](O)[C@H](O)[C@@H](C)[C@H]1CC[C@H]2[C@@H]3CC(=O)[C@H]4C[C@H](O)[C@H](O)C[C@]4(C)[C@H]3CC[C@]12C [Brassinosteroid 9, 28-Homocastasterone] | 41 ± 4.5 | 36 ± 4.4 | 38 ± 4.0 | > 50 | – | no significant changes in expression of Bcl-2 family protein nor caspase-3 activation | no significant changes | no significant changes | decreased | in vitro antiviral activity
